The results in this text go back to patent publication US12391697B2, “Condensed bi-heterocycles as inhibiting agents for Bruton's tyrosine kinase” (BIOGEN MA INC., priority 2019, dated 2025).

pIC50: −log10 of the molar value. Structures can show the parent of a compound that is named as a salt.

The target of the test is BTK (Homo sapiens (Human), UniProt Q06187). The test is described as follows: In Vitro BTK Kinase Assay: Btk-PolyGAT-LS Assay. Type of test: biochemical. To be noted: active BTK enzyme 0.25 nM, ATP 10 μM, polyGAT 100 nM, 30 minutes. The protocol:
In Vitro BTK Kinase Assay: Btk-PolyGAT-LS Assay
The purpose of the BTK in vitro assay is to determine compound potency against BTK through the measurement of IC50. […] The BTK kinase reaction was done in a black 96 well plate (costar 3694). For a typical assay, a […] aliquot of a ATP/peptide master mix (final concentration; ATP 10 μM, polyGAT 100 nM) in kinase buffer (10 mM Tris-HCl pH 7.5, 10 mM MgCl2, 200 μM […], 5 mM DTT, 0.01% Triton X-100, and 0.2 mg/ml casein) is added to each well. Next, […] of a 4-fold, 40× compound titration in 100% DMSO solvent is added, followed by adding 15 uL of BTK enzyme mix in 1× kinase buffer (with a final concentration of 0.25 nM). The assay is incubated for 30 minutes before being stopped with […] of a 50 mM EDTA solution. Aliquots (5 uL) of the kinase reaction are transferred to a low volume white 384 well plate (Corning 3674), and […] of a 2× detection buffer (Invitrogen PV3574, with 4 nM Tb-PY20 antibody, Invitrogen PV3552) is added. The plate is covered and incubated for 45 minutes at room temperature. Time resolved fluorescence (TRF) on Molecular Devices M5 (332 nm excitation; 488 nm emission; 518 nm fluorescein emission) is measured.

BTK, sequence (Q06187 whole entry): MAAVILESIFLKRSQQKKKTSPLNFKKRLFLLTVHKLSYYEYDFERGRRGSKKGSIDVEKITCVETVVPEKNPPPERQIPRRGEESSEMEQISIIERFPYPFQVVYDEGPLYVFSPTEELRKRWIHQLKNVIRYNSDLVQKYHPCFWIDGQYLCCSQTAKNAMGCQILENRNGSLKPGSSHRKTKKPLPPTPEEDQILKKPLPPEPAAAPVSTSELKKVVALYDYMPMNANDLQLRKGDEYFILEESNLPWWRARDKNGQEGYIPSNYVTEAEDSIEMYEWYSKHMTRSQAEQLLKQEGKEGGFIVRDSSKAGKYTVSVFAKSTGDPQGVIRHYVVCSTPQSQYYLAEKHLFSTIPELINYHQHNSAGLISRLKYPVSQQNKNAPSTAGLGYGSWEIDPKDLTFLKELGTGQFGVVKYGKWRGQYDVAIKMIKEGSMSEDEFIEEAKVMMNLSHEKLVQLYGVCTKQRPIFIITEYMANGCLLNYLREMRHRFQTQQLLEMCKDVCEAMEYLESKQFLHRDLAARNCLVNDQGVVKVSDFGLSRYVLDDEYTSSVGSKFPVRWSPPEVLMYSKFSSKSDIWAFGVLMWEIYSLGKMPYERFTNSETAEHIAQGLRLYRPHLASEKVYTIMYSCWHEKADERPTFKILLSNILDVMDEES

As usually defined, the pIC50 is the IC50 on a negative log10 scale, so that one unit is a factor of ten. A low value points to a high IC50. Consider `CC(C)(C)c1noc(C(=O)NCc2cc(F)c(-c3ncnn4cccc34)cc2Cl)n1` [Example 133], for which the pIC50 was 8.00 to 9.00. As for `Cn1cc(-c2cc3c(-c4ccc(CNC(=O)c5nc(C(C)(C)C)no5)c(CC(F)F)c4)ncnn3c2)cn1` [Example 207], the figure is ≥ 9.00; as for `Cc1c(CNC(=O)c2nc(C(C)(C)C)no2)ccc(-c2ccnc3cc(-c4cnn(C)c4)nn23)c1F` [Example 83], ≥ 9.00; as for `CC(C)(C)n1ccc(C(=O)NCc2ccc(-c3ncnn4cc(N5CCOCC5)cc34)c(F)c2Cl)n1` [Example 158], 8.00 to 9.00. As for `Cc1cc(-c2ncnn3ccc(C)c23)ccc1CNC(=O)c1noc(C(C)(C)C)n1` [Example 49], the figure is 8.00 to 9.00. The figure for `COc1cc(-c2ncnn3cc(-c4cnn(C)c4)cc23)ccc1CNC(=O)c1nc(C(C)(C)C)no1` [Example 189] is ≥ 9.00; for `COCCN(C)c1cc2c(-c3ccc(CNC(=O)c4noc(C(C)(C)C)n4)c(C)c3)ncnn2c1` [Example 174] it is ≥ 9.00. For the molecule `CC(C)(C)c1nnc(C(=O)NCc2ccc(-c3ncnn4cc(N5CCOCC5)cc34)cc2C(F)F)o1` [Example 193], the pIC50 was 8.00 to 9.00. Consider `Cc1cc(-c2ncnn3cc(-c4cnn(C)c4C)cc23)ccc1CNC(=O)c1noc(C(C)(C)C)n1` [Example 109], for which the pIC50 was ≥ 9.00. As for `Cc1cc(-c2ncnn3cc(N4CCOCC4)cc23)ccc1CNC(=O)c1nc(C(C)(C)C)no1` [Example 105], the figure is ≥ 9.00.

Regarding `CC(C)(C)c1noc(C(=O)NCc2ccc(-c3ncnn4cc(N5CCOCC5)cc34)cc2CC(F)F)n1` [Example 65, 3-(tert-butyl)-N-(2-(2,2-difluoroethyl)-4-(6-morpholinopyrrolo[2,1-f][1,2,4]triazin-4-yl)benzyl)-1,2,4-oxadiazole-5-carboxamide hydrochloride], the pIC50 is ≥ 9.00. The figure for `Cn1cc(-c2cc3c(-c4ccc(CNC(=O)c5nnc(C(C)(C)C)o5)c(C(F)F)c4)ncnn3c2)cn1` [Example 191] is ≥ 9.00; for `Cc1cc(-c2ncnn3cc(N4CCO[C@H](C)C4)cc23)ccc1CNC(=O)c1nnn(C(C)(C)C)n1` (single isomer, unassigned) [Example 139] it is ≥ 9.00. Regarding `Cc1cc(-c2ccnn3cnnc23)ccc1CNC(=O)c1noc(C(C)(C)C)n1` [Example 47], the pIC50 was < 8.00.

For `Cn1cc(-c2cc3c(-c4ccc(CNC(=O)c5noc(C(C)(C)C)n5)c(C(F)F)c4)ncnn3c2)cn1` [Example 219], the pIC50 is ≥ 9.00. The figure for `Cc1cc(-c2ncnn3cc(C4CCOC4)cc23)ccc1CNC(=O)c1noc(C(C)(C)C)n1` (stereo not drawn) [Example 95] is 8.00 to 9.00; for `Cc1cc(-c2ccnc3cc(N4CCOCC4)nn23)ccc1CNC(=O)c1noc(C(C)(C)C)n1` [Example 22, 5-(tert-butyl)-N-(2-methyl-4-(2-morpholinopyrazolo[1,5-a]pyrimidin-7-yl)benzyl)-1,2,4-oxadiazole-3-carboxamide] it is 8.00 to 9.00. Take `Cc1cc(-c2ccnn3cccc23)ccc1CNC(=O)c1nc(C(C)(C)C)no1` [Example 18, 3-(tert-butyl)-N-(2-methyl-4-(pyrrolo[1,2-b]pyridazin-4-yl)benzyl)-1,2,4-oxadiazole-5-carboxamide]: the pIC50 is 8.00 to 9.00. `Cc1cc(-c2ncnn3cc(OC4CCOCC4)cc23)ccc1CNC(=O)c1noc(C(C)(C)C)n1` [Example 79, 5-(tert-butyl)-N-(2-methyl-4-(6-((tetrahydro-2H-pyran-4-yl)oxy)pyrrolo[2,1-f][1,2,4]triazin-4-yl)benzyl)-1,2,4-oxadiazole-3-carboxamide] gave a pIC50 of 8.00 to 9.00.

`Cc1cc(-c2ncnn3cccc23)ccc1CNC(=O)c1cnn(C(C)(C)C)c1` [Example 183] had a pIC50 of 8.00 to 9.00.

With `CC(C)(C)c1nnc(C(=O)NCc2ccc(-c3ncnn4cc(N5CCOCC5)cc34)c(F)c2Cl)o1` [Example 156], the pIC50 was ≥ 9.00.

As for `CC(C)(C)n1cc(C(=O)NCc2ccc(-c3ncnn4cc(N5CCOCC5)cc34)c(F)c2Cl)cn1` [Example 155], the negative logarithm of the IC50 (pIC50) was ≥ 9.00. `CCn1cc(-c2cc3c(-c4ccc(CNC(=O)c5noc(C(C)(C)C)n5)c(C)c4)ncnn3c2)cn1` [Example 236]: the pIC50 was ≥ 9.00. On to `Cc1cc2nccc(-c3ccc(CNC(=O)c4noc(C(C)(C)C)n4)c(C)c3)n2n1` [Example 46], for which the pIC50 is < 8.00. The figure for `Cc1cc(-c2ncnn3cc(N4CC[C@@H](F)C4)cc23)ccc1CNC(=O)c1noc(C(C)(C)C)n1` (single isomer, unassigned) [Example 142] is ≥ 9.00; for `CC(C)(C)c1nc(C(=O)NCc2cc(F)c(-c3ncnn4cccc34)cc2Cl)no1` [Example 132] it is 8.00 to 9.00. As for `COc1c(CNC(=O)c2noc(C(C)(C)C)n2)ccc(-c2ncnn3cc(-c4cnn(C)c4)cc23)c1F` [Example 235], the pIC50 is ≥ 9.00. For `Cc1c(CNC(=O)c2nnc(C(C)(C)C)o2)ccc(-c2ncnn3cc(N4CCOCC4)cc23)c1F` [Example 81], the negative logarithm of the IC50 (pIC50) was 8.00 to 9.00. As for `Cc1cc(-c2ncnn3cc(N4CCOC(C(C)C)C4)cc23)ccc1CNC(=O)c1nc(C(C)(C)C)no1` (stereo not drawn) [Example 100], the figure is 8.00 to 9.00. As for `CC(C)(C)c1nc(C(=O)NCc2ccc(-c3ncnn4cc(N5CCOCC5)cc34)c(F)c2Cl)no1` [Example 154], the figure is ≥ 9.00; as for `Cn1cc(-c2cc3c(-c4ccc(CNC(=O)c5noc(C(C)(C)C)n5)c(CC(F)F)c4F)ncnn3c2)cn1` [Example 233], ≥ 9.00.

`Cc1cc(-c2ncnn3cc(-c4cnsc4)cc23)ccc1CNC(=O)c1nc(C(C)(C)C)no1` [Example 173]: the pIC50 was ≥ 9.00. As for `Cc1cc(-c2ncnn3cc(C4=CCOCC4)cc23)ccc1CNC(=O)c1nnn(C(C)(C)C)n1` [Example 128], the figure is ≥ 9.00; as for `CC(C)(C)c1nc(C(=O)NCc2ccc(-c3ncnn4cc(N5CCOCC5)cc34)cc2C(F)F)no1` [Example 220], ≥ 9.00; as for `Cc1c(CNC(=O)c2nc(C(C)(C)C)no2)ccc(-c2ncnn3cc(N4CCN(C)[C@H](C)C4)cc23)c1F` (single isomer, unassigned) [Example 25], ≥ 9.00. As for `CC(C)(C)n1cc(C(=O)NCc2ccc(-c3ncnn4cc(-c5cnn(CC(F)F)c5)cc34)cc2C(F)F)cn1` [Example 209], the figure is ≥ 9.00; as for `Cc1cc(-c2ncnn3cc(C#N)cc23)ccc1CNC(=O)c1noc(C(C)(C)C)n1` [Example 102], 8.00 to 9.00; as for `CC(C)(C)c1noc(C(=O)NCc2ccc(-c3ncnn4cccc34)c(F)c2C2CC2)n1` [Example 153], 8.00 to 9.00. Regarding `Cc1c(CNC(=O)c2noc(C(C)(C)C)n2)ccc(-c2ncnn3cc(N4CCOCC4)cc23)c1F` [Example 86], the pIC50 was ≥ 9.00.

As for `CC=CC(=O)n1cc(-c2cc3c(-c4ccc(CNC(=O)c5noc(C(C)(C)C)n5)c(C)c4)ncnn3c2)cn1` [Example 147], the pIC50 was ≥ 9.00. As for `Cn1cc(-c2cc3c(-c4ccc(CNC(=O)c5cnn(C(C)(C)C)c5)c(C(F)F)c4)ncnn3c2)cn1` [Example 212], the figure is ≥ 9.00; as for `Cn1cc(-c2cc3c(-c4ccc(CNC(=O)c5cn(C(C)(C)C)nn5)c(C(F)F)c4F)ncnn3c2)cn1` [Example 195], 8.00 to 9.00. As for `Cn1cc(-c2cc3c(-c4ccc(CNC(=O)c5cnn(C(C)(C)C)c5)c(C(F)(F)F)c4)ncnn3c2)cn1` [Example 61, 1-(tert-butyl)-N-(4-(6-(1-methyl-1H-pyrazol-4-yl)pyrrolo[2,1-f][1,2,4]triazin-4-yl)-2-(trifluoromethyl)benzyl)-1H-pyrazole-4-carboxamide], the figure is ≥ 9.00; as for `Cc1cc(-c2ncnn3cc(N4CCN(C5COC5)C[C@@H]4C)cc23)ccc1CNC(=O)c1noc(C(C)(C)C)n1` [Example 75, (S)-5-(tert-butyl)-N-(2-methyl-4-(6-(2-methyl-4-(oxetan-3-yl)piperazin-1-yl)pyrrolo[2,1-f][1,2,4]triazin-4-yl)benzyl)-1,2,4-oxadiazole-3-carboxamide], 8.00 to 9.00; as for `CC(C)(C)c1nc(C(=O)NCc2ccc(-c3ncnn4cccc34)cc2C(F)F)no1` [Example 181], 8.00 to 9.00. Consider `Cc1cc(-c2ncnn3cc(-c4cnn(C5CC5)c4)cc23)ccc1CNC(=O)c1noc(C(C)(C)C)n1` [Example 237], for which the pIC50 is ≥ 9.00.

`Cc1cc(-c2ncnn3cnc(C)c23)ccc1CNC(=O)c1noc(C(C)(C)C)n1` [Example 48]: the pIC50 was 8.00 to 9.00. The molecule `COc1cc(-c2ncnn3cc(-c4cnn(C)c4)cc23)ccc1CNC(=O)c1nnc(C(C)(C)C)o1` [Example 197] had a pIC50 of 8.00 to 9.00.

Consider `Cc1cc(-c2ncnn3cc(-c4cnn(C)c4)cc23)ccc1CNC(=O)c1noc(C(C)(C)C)n1` [Example 80, 5-(tert-butyl)-N-(2-methyl-4-(6-(1-methyl-1H-pyrazol-4-yl)pyrrolo[2,1-f][1,2,4]triazin-4-yl)benzyl)-1,2,4-oxadiazole-3-carboxamide], for which the pIC50 was ≥ 9.00. The figure for `Cc1cc(-c2ncnn3cc(N4CCN(C)[C@H](C)C4)cc23)ccc1CNC(=O)c1nc(C(C)(C)C)no1` (single isomer, unassigned) [Example 27] is ≥ 9.00. The molecule `Cc1cc(-c2ncnn3cccc23)ccc1CNC(=O)c1nc(C(C)(C)C)no1` [Example 152] showed a pIC50 of 8.00 to 9.00.
